Among the test systems are SNB-19 CNS; M14 melanoma; NCI-H460 lung; SK-MEL-5 melanoma; OVCAR-5 ovarian; CAKI-1 renal; COLO 205 colon; SNB-75 CNS; HCT-116 colon; RPMI-8226 leukemia; A498 renal; HOP-62 NSCLC; SK-MEL-2 melanoma; SK-MEL-28 melanoma; U251 CNS; KM12 colon; NCI-H226 lung; NCI-H522 lung; SF-295 CNS; SK-OV-3 ovarian.
What all share (test): DTP human tumour cell line panel, 48 h

Each structure is given as a SMILES string.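 Dose response: 5 concentrations. Exposure: 48 h. Format: 96-well plates. Endpoint: linear interpolation; highest concentration if not reached. TGI: concentration producing complete growth inhibition.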 Where a SMILES comes first, the peptide text is derived from it. [ ]: non-standard residue; d: D form. The star is where a group is joined. Iva = CC[C](C)(N)C(=O)O; Boc = CC(C)(C)OC(=O)*; X52 = C1CCC(=NO*)C1

Usually TGI stands for the concentration giving total growth inhibition. A high value points to less potent growth arrest. Turning to `C1CSCCSCCSCCSC1`, the TGI in the experiment with SNB-19 CNS, with M14 melanoma, in the experiment on NCI-H460 lung, with SK-MEL-5 melanoma, in the experiment with OVCAR-5 ovarian and in the experiment with CAKI-1 renal was above 100 µM throughout. Moreover, the TGI with COLO 205 colon, in the experiment on SNB-75 CNS, in the experiment on HCT-116 colon, in the experiment with RPMI-8226 leukemia, in the experiment with A498 renal and in the experiment on HOP-62 NSCLC was above 100 µM throughout. Also, the TGI in the experiment on SK-MEL-2 melanoma, with SK-MEL-28 melanoma, in the experiment on U251 CNS, in the experiment on KM12 colon, in the experiment on NCI-H226 lung and in the experiment with NCI-H522 lung was above 100 µM throughout. The total growth inhibition concentration (TGI) in the experiment with SF-295 CNS and with SK-OV-3 ovarian was above 100 µM throughout.

For `CCC(C)(NC(=O)C(C)NC(=O)OC(C)(C)C)C(=O)NC(C)C(=O)NC(C)(CC)C(=O)ON=C1CCCC1` (stereo not given) (Boc-A[Iva]A[Iva]-X52; configuration not given here), the TGI in the experiment with SNB-19 CNS, in the experiment on M14 melanoma, in the experiment on NCI-H460 lung, with SK-MEL-5 melanoma, in the experiment on OVCAR-5 ovarian and with CAKI-1 renal was above 100 µM throughout. Besides, the TGI in the experiment on COLO 205 colon, in the experiment with SNB-75 CNS, in the experiment with HCT-116 colon, in the experiment on RPMI-8226 leukemia, with A498 renal and with HOP-62 NSCLC was above 100 µM each time. Besides, the concentration for total growth inhibition (TGI) with SK-MEL-2 melanoma, in the experiment on SK-MEL-28 melanoma, with U251 CNS, with KM12 colon, with NCI-H226 lung and with NCI-H522 lung was above 100 µM in each case. In addition, the TGI with SF-295 CNS and in the experiment with SK-OV-3 ovarian was above 100 µM throughout.

On to `CCCCN1CN2C(=O)C(C(=O)OCC)C(=O)c3sc4nc(SC)nc1c4c32` (stereo not given), for which the TGI in the experiment on SNB-19 CNS is 34.8 µM; in the experiment on M14 melanoma it was 40.1 µM; with NCI-H460 lung, 40.2 µM; with SK-MEL-5 melanoma, 24.8 µM; with OVCAR-5 ovarian it was 32.6 µM; in the experiment on CAKI-1 renal it was 32.9 µM. The concentration for total growth inhibition (TGI) in the experiment with COLO 205 colon came to 35.5 µM; with SNB-75 CNS, 35.7 µM; in the experiment with HCT-116 colon, 30.6 µM; in the experiment with RPMI-8226 leukemia it was 42.7 µM; with A498 renal, 16.8 µM; in the experiment with HOP-62 NSCLC, 30.5 µM. The TGI in the experiment with SK-MEL-2 melanoma was found to be 36.6 µM; with SK-MEL-28 melanoma, 34 µM; with U251 CNS, 33.7 µM; in the experiment with KM12 colon it was 36 µM; with NCI-H226 lung, 34 µM; with NCI-H522 lung it was 35.4 µM. Also, the TGI stood at 30.8 µM with SF-295 CNS and 31.7 µM with SK-OV-3 ovarian.

On to `CCCC[C@H]1[C@@H](OCOc2ccccc2)COC(=O)N1[C@H](C)c1ccccc1`, for which the TGI was above 55 µM in the experiment on SNB-19 CNS; 31.2 µM in the experiment with M14 melanoma; 32.1 µM in the experiment on NCI-H460 lung; 16.9 µM with SK-MEL-5 melanoma; 43.6 µM in the experiment on OVCAR-5 ovarian; 30.5 µM with CAKI-1 renal. Moreover, the TGI was above 100 µM in the experiment with COLO 205 colon; 26.9 µM in the experiment with SNB-75 CNS; 20.8 µM with HCT-116 colon; 60.1 µM with RPMI-8226 leukemia; 29.4 µM with A498 renal; 29.8 µM in the experiment on HOP-62 NSCLC. Besides, the TGI was 33.3 µM in the experiment with SK-MEL-2 melanoma; 71.1 µM in the experiment with SK-MEL-28 melanoma; 42.3 µM in the experiment on U251 CNS; 33.5 µM in the experiment on KM12 colon; above 100 µM with NCI-H226 lung; 29.2 µM in the experiment on NCI-H522 lung. Besides, the total growth inhibition concentration (TGI) in the experiment with SF-295 CNS was 50.6 µM; in the experiment with SK-OV-3 ovarian, above 56.1 µM.

As for `COc1ccc(C2SCC(=O)N2NC(=O)c2ccncc2)cc1F` (stereo not given), the TGI in the experiment with SNB-19 CNS, in the experiment with M14 melanoma, in the experiment on NCI-H460 lung, in the experiment on SK-MEL-5 melanoma, in the experiment on OVCAR-5 ovarian and with CAKI-1 renal was above 100 µM throughout. For the same compound, the total growth inhibition concentration (TGI) in the experiment with COLO 205 colon, with SNB-75 CNS, in the experiment with HCT-116 colon, with RPMI-8226 leukemia, in the experiment with A498 renal and in the experiment on HOP-62 NSCLC was above 100 µM each time. Further, the TGI in the experiment on SK-MEL-2 melanoma, with SK-MEL-28 melanoma, in the experiment on U251 CNS, with KM12 colon, in the experiment with NCI-H226 lung and with NCI-H522 lung was above 100 µM each time. The concentration for total growth inhibition (TGI) with SF-295 CNS and with SK-OV-3 ovarian was above 100 µM in each case.

Consider `CC(C)OP(=O)(OC(C)C)c1nc(-c2ccccc2)n(-c2ccc([N+](=O)[O-])cc2)n1`, for which the TGI in the experiment on SNB-19 CNS, in the experiment on M14 melanoma, in the experiment with NCI-H460 lung, in the experiment on SK-MEL-5 melanoma, in the experiment with OVCAR-5 ovarian and in the experiment with CAKI-1 renal was above 100 µM throughout. The TGI in the experiment with COLO 205 colon, in the experiment on SNB-75 CNS, with HCT-116 colon, in the experiment with RPMI-8226 leukemia, in the experiment with A498 renal and with HOP-62 NSCLC was above 100 µM each time. The TGI in the experiment with SK-MEL-2 melanoma, in the experiment on SK-MEL-28 melanoma, in the experiment on U251 CNS, in the experiment on KM12 colon, in the experiment on NCI-H226 lung and in the experiment on NCI-H522 lung was above 100 µM in each case. Moreover, the TGI with SF-295 CNS and in the experiment with SK-OV-3 ovarian was above 100 µM throughout.

Values taken from PubChem BioAssay (NCI).
